This is an account of results in ChEMBL document CHEMBL4673266, “Sulfonamide antibiotics inhibit RNAi by binding to human Argonaute protein 2 PAZ” (Bioorg Med Chem Lett, 2020).

Structures are written as SMILES. Activity calls are given as the source filed them. The calls are words filed in the database; no cut-off is given here.

In general, Kd refers to the concentration at which binding is half-saturated.

Test [1] has as its target T1, Protein argonaute-2 (Homo sapiens, UniProt Q9UKV8). Description: Binding affinity to human Argonaut protein 2 PAZ domain assessed as change in entropy by isothermal titration microcalorimetry.
The test system of test [2] is HeLa. Description: Inhibition of RNAi in human Hela cells expressing Renilla/firefly luciferase genes and siRNA assessed as siRNA-mediated gene silencing activity at 100 to 500 nM by dual luciferase assay relative to control. It is filed as cell-based. Particulars: dose 100-500 nM.
Test [3] concerns the target T1, Protein argonaute-2. Description: Binding affinity to human Argonaut protein 2 PAZ domain assessed as dissociation constant by using isothermal titration microcalorimetry. Background: Isothermal titration calorimetry measures the heat released or taken up as one component is titrated into another.
The target in test [4] is T1, Protein argonaute-2. In words: Binding affinity to human Argonaut protein 2 PAZ domain assessed as association constant by using isothermal titration microcalorimetry.
Test [5] has as its target T1, Protein argonaute-2. Description: Binding affinity to human Argonaut protein 2 PAZ domain assessed as change in enthalpy by isothermal titration microcalorimetry.
For test [6], the system named is HeLa. In words: Inhibition of RNAi in human Hela cells expressing Renilla/firefly luciferase genes and siRNA assessed as siRNA-mediated gene silencing activity at 500 nM by dual luciferase assay relative to control. It is filed as cell-based.

T1 sequence (Q9UKV8 whole entry, the tested form may be a part): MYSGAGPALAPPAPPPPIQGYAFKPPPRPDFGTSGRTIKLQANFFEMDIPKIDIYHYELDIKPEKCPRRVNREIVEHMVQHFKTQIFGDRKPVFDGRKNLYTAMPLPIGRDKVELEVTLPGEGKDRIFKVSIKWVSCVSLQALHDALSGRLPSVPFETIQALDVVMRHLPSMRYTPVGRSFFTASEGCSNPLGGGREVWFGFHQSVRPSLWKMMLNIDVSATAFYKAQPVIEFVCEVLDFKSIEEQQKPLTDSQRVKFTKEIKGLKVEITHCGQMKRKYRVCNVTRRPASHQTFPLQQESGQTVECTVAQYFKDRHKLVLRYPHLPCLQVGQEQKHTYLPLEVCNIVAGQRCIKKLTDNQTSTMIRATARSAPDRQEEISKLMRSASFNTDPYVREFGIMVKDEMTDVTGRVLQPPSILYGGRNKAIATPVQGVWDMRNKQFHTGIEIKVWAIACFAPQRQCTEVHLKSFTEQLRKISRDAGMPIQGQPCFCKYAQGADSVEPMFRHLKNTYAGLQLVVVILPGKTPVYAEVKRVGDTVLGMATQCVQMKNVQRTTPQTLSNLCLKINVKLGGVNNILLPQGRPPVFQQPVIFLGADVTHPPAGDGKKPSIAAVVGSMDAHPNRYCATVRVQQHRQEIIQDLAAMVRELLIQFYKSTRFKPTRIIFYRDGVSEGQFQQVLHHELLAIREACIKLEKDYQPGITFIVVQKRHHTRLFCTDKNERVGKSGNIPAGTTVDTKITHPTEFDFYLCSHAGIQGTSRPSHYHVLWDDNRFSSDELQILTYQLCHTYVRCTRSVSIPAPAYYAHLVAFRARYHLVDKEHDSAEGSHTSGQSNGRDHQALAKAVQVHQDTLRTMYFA

For the compound `Nc1ccc(S(N)(=O)=O)cc1`, the deltaS on Protein argonaute-2 [1] was 15.7 cal/mol.K. Also, in the test on HeLa [2], the inhibition entry is “inactive”.

In the case of `[H]/N=C(/N)NS(=O)(=O)c1ccc(N)cc1` [SULFAGUANIDINE], the Kd at Protein argonaute-2 [3] was 49 µM.

For the compound `N=C(N)NS(=O)(=O)c1ccc(N)cc1`, on Protein argonaute-2 [4], the Ka was 2 10^4/M. For the same compound, at Protein argonaute-2 [5], the deltaH was -1.5 kcal/mol. In addition, the deltaS at Protein argonaute-2 [1] is 15.6 cal/mol.K. For the same compound, the inhibition entry in the test on HeLa [2] is “inactive”.

In the case of `O=c1ccn([C@@H]2O[C@H](COP(=O)(O)O)[C@@H](O)[C@H]2O)c(=O)[nH]1`, on Protein argonaute-2 [4], the Ka was 6.6 10^4/M. Also, on Protein argonaute-2 [5], the deltaH is -0.9 kcal/mol. Further, at Protein argonaute-2 [1], the deltaS stood at 18.2 cal/mol.K.

In the case of `Cc1cc(NS(=O)(=O)c2ccc(N)cc2)nc(C)n1` [SULFISOMIDINE], on Protein argonaute-2 [4], the Ka is 23 10^4/M. Further, the Kd on Protein argonaute-2 [3] is 4.3 µM. At Protein argonaute-2 [5], the deltaH is -1.5 kcal/mol. For the same compound, the deltaS on Protein argonaute-2 [1] came to 19.2 cal/mol.K. Besides, the inhibition entry in the test with HeLa [2] is “Dose-dependent effect”. The inhibition result with HeLa [6] was “Active”.
